Key:
[1] = tested on: pain threshold in yeast-inflamed paw; test: Randall-Selitto paw pressure assay; assay type: in vivo, rat; settings: male Wistar rats; 10 mg/kg orally; 1 h after dosing
Procedure: The analgesic activity of the compounds of the invention is determined using the well-known Randall-Selitto assay.
The Randall-Selitto paw pressure assay measures antinociception (analgesic activity) in inflamed tissue by comparing the pressure threshold in the inflamed paw of the rat after oral administration of test drug with that in the inflamed paw of rats administered corn starch vehicle orally.
Groups of 10 male Wistar rats weighing 40–50 gms are fasted overnight prior to testing. Hyperalgesia is induced by the injection of 0.1 ml of a 20% suspension of Brewer's yeast with a 26 gauge needle into the subplantar region of the right hindpaw. The left paw is not injected and is used as the control paw for determination of hyperalgesia. Vehicle (Fortified corn starch suspension 3%) at 10 ml/kg, reference compound (diclofenac is run in every experiment at the same dose as test compounds) and test compounds at different doses suspended in vehicle at 10 ml/kg are administered orally 2 hours after the yeast injection. The threshold for paw withdrawal is quantified with a Basile Analgesy-meter 1 hour after oral administration of test compounds. The nociceptive threshold is defined as the force in grams at which the rat withdraws its foot or vocalizes. Either vocalization or foot withdrawal is recorded as a response.
The data are analyzed by comparing the mean pain threshold of the corn starch vehicle-treated group for the inflamed and non-inflamed paws to that of individual drug-treated rats. Individual rats in the drug-treated groups and positive control (diclofenac) group are called reactors if the individual pain threshold in each paw exceeds the control group mean threshold by two standard deviations of that mean. The mean pain thresholds of the inflamed paw in the control group are compared to the individual pain thresholds of the inflamed paw in the test drug group. The non-inflamed control mean pressure threshold is compared to the non-inflamed individual pressure thresholds in the test groups. Results are expressed as number of reactors in each test group (n=10) for inflamed and non-inflamed paws. Percentages are calculated by dividing number of reactors by total number of rats used for a compound.

[2] = tested on: gross gastric ulceration; test: gastric tolerability assay; assay type: in vivo; settings: rat; 100 mg/kg p.o.; four hours after administration
Procedure: The gastric tolerability assay is used to assess gross ulceration in the rat, measured four hours after oral administration of the test compound. The test is carried out as follows: Rats are fasted overnight, administered compound in fortified cornstarch vehicle by gavage, and sacrificed by carbon dioxide inhalation four hours later. The stomachs are removed and gross gastric lesions counted and measured to give the total lesion length per rat. Each experiment contains the following groups (5–6 rats per group): vehicle control, test compounds, and diclofenac as a reference compound. Data are calculated as the mean number of ulcers in a group, the mean length of ulcers (mm) in the group and as the ulcer index (UI). UI=mean length of ulcers in a group×ulcer incidence where ulcer incidence is the fraction of animals in the group with lesions (100% incidence is 1).

[3] = tested on: intestinal permeability; test: intestinal tolerability (51Cr-EDTA intestinal permeability); assay type: in vivo; settings: rat; 30 mg/kg p.o.; 51Cr-EDTA urinary excretion over 24 h
Procedure: Intestinal tolerability can be determined by measuring the effect on intestinal permeability. Lack of increase in permeability is indicative of intestinal tolerability. The method used is a modification of a procedure by Davies, et al., Pharm. Res. 1994; 11:1652–1656 and is based on the fact that excretion of orally administered ^51Cr-EDTA, a marker of small intestinal permeability, is increased by NSAIDs. Groups of rats (≧12/group) are administered a single, oral dose of test compound or vehicle by gastric intubation. Immediately following compound dose, each rat is administered ^51Cr-EDTA (5 μCi/rat) by gastric intubation. The rats are placed in individual metabolic cages and given food and water ad libitum. Urine is collected over a 24 hour period. Twenty-four hours after administration of ^51Cr-EDTA the rats are sacrificed. To quantify compound effect on intestinal permeability, the excreted ^51Cr-EDTA measured in the urine of compound treated rats is compared to the excreted ^51Cr-EDTA measured in the urine of vehicle treated rats. Relative permeability is determined by calculating the activity present in each urine sample as a percent of the administered dose after correcting for background radiation.

| SMILES | melting point [°C] | further results |
| --- | --- | --- |
| CCc1ccc(Nc2c(F)c(F)cc(F)c2F)c(CC(=O)OCC(=O)O)c1 [6(a), carboxymethyl 5-ethyl-2-(2′,3′,5′,6′-tetrafluoroanilino)phenylacetate] | 151 to 153 | pain threshold in the inflamed paw [1]: increase the pain threshold; pain threshold in the non-inflamed paw [1]: no threshold elevation; gastric ulcerogenic effect [2]: essentially free of any gastric ulcerogenic effect; effect on intestinal permeability [3]: no effect or only a minimal effect |
| Cc1ccc(Nc2c(F)c(F)cc(F)c2F)c(CC(=O)O)c1 [Example 1(b), 5-methyl-2-(2′,3′,5′,6′-tetrafluoroanilino)phenylacetic acid] | 153 to 156 |  |
| Cc1ccc(Nc2c(Cl)cccc2Cl)c(CC(=O)O)c1 [Example 1(c), 5-methyl-2-(2′,6′-dichloroanilino)phenylacetic acid] | 168 to 170 |  |
| Cc1cc(Cl)c(Nc2ccc(C)cc2CC(=O)O)c(Cl)c1 [Example 1(e), 5-methyl-2-(2′,6′-dichloro-4′-methylanilino)phenylacetic acid] | 179 to 182 |  |
| Cc1ccc(Nc2c(C)cccc2Cl)c(CC(=O)O)c1 [Example 1(f), 5-methyl-2-(2′-chloro-6′-methylanilino)phenylacetic acid] | 138 to 140 |  |
| Cc1ccc(Nc2c(F)cc(Cl)cc2Cl)c(CC(=O)O)c1 [Example 1(h), 5-methyl-2-(2′-fluoro-4′,6′-dichloroanilino)phenylacetic acid] | 178 to 180 |  |
| Cc1ccc(Nc2c(C)cc(F)cc2Cl)c(CC(=O)O)c1 [Example 1(i), 5-methyl-2-(2′-chloro-4′-fluoro-6′-methylanilino)phenylacetic acid] | 154 to 156 |  |
| Cc1ccc(Nc2c(F)cc(O)cc2Cl)c(CC(=O)O)c1 [Example 1(j), 5-methyl-2-(2′-chloro-4′-hydroxy-6′-fluoroanilino)phenylacetic acid] | 180 to 182 |  |
| CCc1ccc(Nc2c(F)cccc2Cl)c(CC(=O)O)c1 [Example 2(a), 5-ethyl-2-(2′-fluoro-6′-chloroanilino)phenylacetic acid] | 147 to 148 |  |
| CCc1ccc(Nc2c(C)cccc2Cl)c(CC(=O)O)c1 [Example 2(b), 5-ethyl-2-(2′-chloro-6′-methylanilino)phenylacetic acid] | 125 to 126 |  |
| CCc1ccc(Nc2c(F)ccc(F)c2F)c(CC(=O)O)c1 [Example 2(c), 5-ethyl-2-(2′,3′,6′-trifluoroanilino)phenylacetic acid] | 138 to 140 |  |
| CCOc1c(F)c(F)c(Nc2ccc(CC)cc2CC(=O)O)c(F)c1F [Example 2(d), 5-ethyl-2-(2′,3′,5′,6′-tetrafluoro-4′-ethoxyanilino)phenylacetic acid] | 131 to 132 |  |
| CCc1ccc(Nc2c(F)cc(F)cc2Cl)c(CC(=O)O)c1 [Example 2(e), 5-ethyl-2-(2′-chloro-4′,6′-difluoroanilino)phenylacetic acid] | 160 to 162 |  |
| CCc1ccc(Nc2c(F)cc(Cl)cc2Cl)c(CC(=O)O)c1 [Example 2(f), 5-ethyl-2-(2′,4′-dichloro-6′-fluoroanilino)phenylacetic acid] | 169 to 171 |  |
| CCc1ccc(Nc2c(C)cc(Cl)cc2Cl)c(CC(=O)O)c1 [Example 3(b), 5-ethyl-2-(2′,4′-dichloro-6′-methylanilino)phenylacetic acid] | 180 to 183 |  |
| CCc1ccc(Nc2c(Cl)cccc2Cl)c(CC(=O)O)c1 [Example 3(c), 5-ethyl-2-(2′,6′-dichloroanilino)phenylacetic acid] | 133 to 136 |  |
| CCc1ccc(Nc2c(C)cc(F)cc2F)c(CC(=O)O)c1 [Example 5(b), 5-ethyl-2-(2′,4′-difluoro-6′-methylanilino)phenylacetic acid] | 143 to 145 |  |
| CCc1ccc(Nc2c(C)cc(F)cc2Cl)c(CC(=O)O)c1 [Example 5(c), 5-ethyl-2-(2′-chloro-4′-fluoro-6′-methylanilino)phenylacetic acid] | 151 to 154 |  |
| CCc1ccc(Nc2c(C)cc(Cl)cc2Cl)c(CC(=O)OCC(=O)O)c1 [Example 6(b), carboxymethyl 5-ethyl-2-(2′,4′-dichloro-6′-methylanilino)phenylacetate] | 123 to 125 |  |
| CCc1ccc(Nc2c(Cl)cccc2Cl)c(CC(=O)OCC(=O)O)c1 [Example 6(c), carboxymethyl 5-ethyl-2-(2′,6′-dichloroanilino)phenylacetate] | 124 to 126 |  |
| CCc1ccc(Nc2c(F)cc(F)cc2Cl)c(CC(=O)OCC(=O)O)c1 [Example 6(d), carboxymethyl 5-ethyl-2-(2′,4′-difluoro-6′-chloroanilino)phenylacetate] | 142 to 144 |  |
| CCc1ccc(Nc2c(F)cc(Cl)cc2Cl)c(CC(=O)OCC(=O)O)c1 [Example 6(e), carboxymethyl 5-ethyl-2-(2′,4′-dichloro-6′-fluoroanilino)phenylacetate] | 132 to 134 |  |
| CCc1ccc(Nc2c(F)cccc2Cl)c(CC(=O)OCC(=O)O)c1 [Example 6(f), carboxymethyl 5-ethyl-2-(2′-chloro-6′-fluoroanilino)phenylacetate] | 106 to 108 |  |
| Cc1ccc(Nc2c(F)cc(Cl)cc2Cl)c(CC(=O)OCC(=O)O)c1 [Example 6(g), carboxymethyl 5-methyl-2-(2′-fluoro-4′,6′-dichloroanilino)phenylacetate] | 148 to 150 |  |
| Cc1ccc(Nc2c(Cl)cccc2Cl)c(CC(=O)OCC(=O)O)c1 [Example 6(h), carboxymethyl 5-methyl-2-(2′,6′-dichloroanilino)phenylacetate] | 125 to 126 |  |
| Cc1ccc(Nc2c(F)cccc2Cl)c(CC(=O)OCC(=O)O)c1 [Example 6(i), carboxymethyl 5-methyl-2-(2′-chloro-6′-fluoroanilino)phenylacetate] | 96 to 98 |  |
| CCc1ccc(Nc2c(F)c(F)cc(F)c2F)c(CC(=O)OC(C)(C)C(=O)O)c1 [Example 8, 1-carboxy-1-methylethyl 5-ethyl-2-(2′,3′,5′,6′-tetrafluoroanilino)phenylacetate] | 104 to 108 |  |
| Cc1ccc(Nc2c(F)cccc2C(F)(F)F)c(CC(=O)O)c1 [Example 9(a), 5-methyl-2-(2′-fluoro-6′-trifluoromethylanilino)phenylacetic acid] | 155 to 156 |  |

Reference: US7115662B2, “Certain 5-alkyl-2-arylaminophenylacetic acids and derivatives” (Novartis AG, priority 1997, dated 2006)
